Data reported in article PMC5554889, “Development of a Potent Inhibitor of the Plasmodium Proteasome with Reduced Mammalian Toxicity” (Journal of Medicinal Chemistry, 2017).
One block for each molecule: values may come before it.

Assays:
[1] = tested on: ABC16-Monster S. cerevisiae; experiment: microbe, parasite or virus in culture; type: cell-based; conditions: Saccharomyces cerevisiae
HepG2 cells = experiment: HepG2 cytotoxicity assay; type: cell-based, human; conditions: D-amino acid at P3; comparator not given
Dd2 parasites = experiment: Artemisinin IC50 with proteasome inhibitor co-treatment, 72 h SYBR green assay; type: cell-based; conditions: Plasmodium falciparum
Description: Compound susceptibility was measured using the malaria SYBR green I-based fluorescence assay.[39] Asynchronous P. falciparum parasites (Dd2 strain) were cultured in standard conditions before being plated for the assays. Each compound was tested over 72 h in technical duplicates on a 12-point concentration curve prepared by 3-fold dilution from 6.7 μM to 0.11 nM. At least three independent experiments were carried out for IC50 determination. Artemisinin and chloroquine were used as controls. IC50 values were obtained using normalized fluorescence intensity from SYBR green I and analyzed via nonlinear variable slope four-parameter regression curve-fitting model in Prism 6 (GraphPad Software Inc.).

SMILES: CCCCCC(=O)N[C@H](C(=O)N[C@@H](CCS(C)(=O)=O)C(=O)N[C@@H](CC(C)C)C(=O)[C@@]1(C)CO1)C(C)C [Carmaphycin B, carmaphycin B]
IC50 ([1]; GM (parental ABC16-Monster strain), n=4): 24300 nM
IC50 ([1]; resistant Lineage 1): > 150000 nM
IC50 ([1]; resistant Lineage 2, n=4): 52700 nM
IC50 ([1]; resistant Lineage 3): > 100000 nM

SMILES: CCCCCC(=O)N[C@H](Cc1c[nH]c2ccccc12)C(=O)N[C@@H](CCCC)C(=O)N[C@@H](CC(C)C)C(=O)[C@@]1(C)CO1 [analog 19]
fold reduced toxicity (HepG2 cells): up to 100 fold

IC50 (Dd2 parasites; DD2, Art + 0.5 nM Analog 18, n = 2): 11 nM
IC50 (Dd2 parasites; DD2, Art + 0.5 nM CarB, n = 2): 13.5 nM
IC50 (Dd2 parasites; DD2, Art + 1.0 nM Analog 18, n = 2): 7.5 nM
IC50 (Dd2 parasites; DD2, Art + 1.0 nM CarB, n = 2): 7 nM
IC50 (Dd2 parasites; DD2, Art only, Figure 3B, mean ± SEM, n = 2): 23.5 nM
IC50 (Dd2 parasites; DD2, Art only, Figure 3C, mean ± SEM, n = 2): 19 nM
IC50 (Dd2 parasites; DD2, artemisinin alone, wild-type artemisinin-sensitive Dd2 parasites, span of both experiments): 19 to 23.5 nM
SMILES: C[C@@H]1CC[C@H]2[C@@H](C)C(=O)O[C@@H]3O[C@@]4(C)CC[C@@H]1[C@]32OO4 [artemisinin]
